Tested on: rat aorta smooth muscle cells (mainly M2, lesser M3)
Experiment: IPX level in primary culture of rat aorta smooth muscle cells
Format: cell-based
Settings: in words
Experimental: Effects of compounds 6A and 7A on both cAMP and IPX levels were also measured in primary cultures of rat aorta smooth muscle cells that express mainly M2 and to a lesser extent M3 receptors (FIG. 6). […] Receptor expression levels are far lower in tested native tissues than in transfected cell lines and vary among tissues, being highest in the striatum and lowest in the submaxillary gland. Relative expression levels of G-proteins are also known to vary among tissues and cell lines. Thus, it is great to see that the pharmacological profile of the new compounds is conserved despite these variations.
Cell culture and membrane preparation: Chinese hamster ovary (CHO) cells stably transfected with the genes of individual human variants of muscarinic receptors were purchased from Missouri S&T cDNA Resource Center (Rolla, Mo., USA). Fresh primary cell culture of smooth muscle cells (SMC) from rat aorta prepared as previously described was kindly provided by Dr. Lucie Bačáková. […]
Measurements of the production of cAMP and inositol phosphates: Levels of second messengers cAMP and inositol phosphates were determined in radiochemical chromatography assays as described previously. […] Samples were applied to alumina columns (1.5 g of alumina per column), washed with 2 ml ammonium acetate (pH=7.0) and eluted from columns with 4 ml ammonium acetate and measured by liquid scintillation spectrometry. […]

`C[N+](C)(C)CCOC(N)=O` [carbachol, reference compound] was tested, and the IPX level was “increase in IPX level”.

Source: patent US11591323B2, “Muscarinic agonists as non-steroidal and non-opioid analgesics and methods of use thereof” (Barry University, priority 2019, dated 2023)
